According to patent US20240174633A1, “CRYSTALLINE FORMS OF (4S)-24-CHLORO-4-ETHYL-73-FLUORO-35-METHOXY-32,5-DIOXO-14-(TRIFLUORO-METHYL)-32H-6-AZA-3(4,1)-PYRIDINA-1(1)-[1,2,3]TRIAZOLA-2(1,2),7(1)-DIBENZENAHEPTAPHANE-74-CARBOXAMIDE” (Bayer Aktiengesellschaft, priority 2021, published 2024):

Key:
[1] = target: human factor XIa (Homo sapiens (Human), UniProt P03951); assay: Measurement of FXIa inhibition (fluorogenic peptide substrate); assay type: biochemical; conditions: substrate Boc-Glu(OBzl)-Ala-Arg-AMC
Sequence of human factor XIa (P03951 388-625): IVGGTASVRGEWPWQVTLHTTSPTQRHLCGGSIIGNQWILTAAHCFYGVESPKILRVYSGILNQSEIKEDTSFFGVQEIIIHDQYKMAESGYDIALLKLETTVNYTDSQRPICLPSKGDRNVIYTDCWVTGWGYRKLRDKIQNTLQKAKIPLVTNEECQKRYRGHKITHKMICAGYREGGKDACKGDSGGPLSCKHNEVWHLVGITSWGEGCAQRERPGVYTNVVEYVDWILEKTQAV
Sequence of human factor XIa (P03951 19-387 partner): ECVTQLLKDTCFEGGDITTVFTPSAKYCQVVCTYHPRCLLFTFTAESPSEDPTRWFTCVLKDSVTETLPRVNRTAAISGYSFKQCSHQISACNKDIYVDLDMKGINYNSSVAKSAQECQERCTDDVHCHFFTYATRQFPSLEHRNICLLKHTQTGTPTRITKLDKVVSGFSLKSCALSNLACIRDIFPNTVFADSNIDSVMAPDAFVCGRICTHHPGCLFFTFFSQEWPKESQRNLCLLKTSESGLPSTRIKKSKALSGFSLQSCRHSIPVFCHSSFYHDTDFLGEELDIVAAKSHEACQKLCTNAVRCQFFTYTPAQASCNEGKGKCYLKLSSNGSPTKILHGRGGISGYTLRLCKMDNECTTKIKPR
Description: (§1) The factor XIa inhibition of the substances according to the invention is determined using a biochemical test system which utilizes the reaction of a peptidic factor XIa substrate to determine the enzymatic activity of human factor XIa. Here, factor XIa cleaves from the peptidic factor XIa substrate the C-terminal aminomethylcoumarin (AMC), the fluorescence of which is measured. The determinations are carried out in microtitre plates.
(§2) Test substances are dissolved in dimethyl sulfoxide and serially diluted in dimethyl sulfoxide (3000 μM to 0.0078 μM; resulting final concentrations in the test: 50 µM to 0.00013 μM). In each case 1 μl of the diluted substance solutions is placed into the wells of white microtitre plates from Greiner (384 wells). […] After 15 min of incubation, the enzyme reaction is started by addition of 20 μl of the factor XIa substrate Boc-Glu(OBzl)-Ala-Arg-AMC dissolved in assay buffer (10 μM in assay buffer) from Bachem, the mixture is incubated at room temperature (22° C.) for 30 min and fluorescence is then measured (excitation: 360 nm, emission: 460 nm). The measured emissions of the test batches with test substance are compared to those of control batches without test substance (only dimethyl sulfoxide instead of test substance in dimethyl sulfoxide), and IC50 values are calculated from the concentration/activity relationships. […]

[2] = target: human plasma kallikrein (Homo sapiens (Human), UniProt P03952); assay: Determination of the plasma kallikrein activity (fluorogenic peptide substrate); assay type: biochemical; conditions: substrate H-Pro-Phe-Arg-AMC
Sequence of human plasma kallikrein (P03952 391-638): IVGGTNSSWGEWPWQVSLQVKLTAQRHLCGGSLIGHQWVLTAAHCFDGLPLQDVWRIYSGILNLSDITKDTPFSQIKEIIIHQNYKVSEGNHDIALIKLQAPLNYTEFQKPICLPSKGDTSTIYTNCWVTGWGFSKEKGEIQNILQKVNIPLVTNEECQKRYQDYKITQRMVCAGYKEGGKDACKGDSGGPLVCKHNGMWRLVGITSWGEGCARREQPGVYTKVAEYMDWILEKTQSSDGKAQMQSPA
Sequence of human plasma kallikrein (P03952 20-390 partner): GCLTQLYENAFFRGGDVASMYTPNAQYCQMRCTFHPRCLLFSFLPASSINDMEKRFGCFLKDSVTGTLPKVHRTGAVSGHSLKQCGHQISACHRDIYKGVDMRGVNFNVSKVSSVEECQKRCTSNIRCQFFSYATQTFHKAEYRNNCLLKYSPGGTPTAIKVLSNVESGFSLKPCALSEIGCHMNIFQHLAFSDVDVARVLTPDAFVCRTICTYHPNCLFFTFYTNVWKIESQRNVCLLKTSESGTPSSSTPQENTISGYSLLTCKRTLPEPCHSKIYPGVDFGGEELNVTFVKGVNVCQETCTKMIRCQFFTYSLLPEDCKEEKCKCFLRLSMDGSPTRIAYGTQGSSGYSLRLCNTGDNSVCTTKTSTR
Description: as §1, with “To determine the plasma kallikrein” for “The factor XIa”, “invention,” for “invention is determined using”, “system is used” for “system”, “plasma kallikrein” for “factor XIa”, “plasma kallikrein.” for “factor XIa.”
as §2, with “[…];” for “μM;”, “μM” for “µM”, “the” for “the factor XIa”, “H-Pro-Phe-Arg-AMC” for “Boc-Glu(OBzl)-Ala-Arg-AMC”

IC50 [1]: 1.2 nM
IC50 [2]: 3.4 nM
SMILES: COc1cn([C@@H](C)C(=O)Nc2ccc(C(N)=O)c(F)c2)c(=O)cc1-c1c(-n2cc(C(F)(F)F)nn2)ccc(Cl)c1F [Example 2.4, 4-({(2S)-2-[4-{3-Chloro-2-fluoro-6-[4-(trifluoromethyl)-1H-1,2,3-triazol-1-yl]phenyl}-5-methoxy-2-oxopyridin-1(2H)-yl]propanoyl}amino)-2-fluorobenzamide]
